Legend:
Type in all cases: functional
Cavia porcellus [1] = species: Cavia porcellus; assay: Dose required to produce negative inotropic (NI) effect in Guinea pig atria; MI is Minimal Activity
Cavia porcellus [2] = species: Cavia porcellus; assay: Dose required to produce 75% increase in developed tension of inotropic effect in guinea pig atria.
Cavia porcellus [3] = species: Cavia porcellus; assay: Dose required to produce 50% increase in developed tension of inotropic effect in guinea pig atria.
Cavia porcellus [4] = species: Cavia porcellus; assay: Dose required to produce arrhythmia (A) on Guinea pig atria.
Cavia porcellus [5] = species: Cavia porcellus; assay: Dose required to produce negative inotropic (NI) effect in Guinea pig atria.
Cavia porcellus [6] = species: Cavia porcellus; assay: Dose required to produce negative inotropic (NI) or arrhythmia (A) effect in Guinea pig atria.
Cavia porcellus [7] = species: Cavia porcellus; assay: Dose required to produce 75% increase in developed tension of inotropic effect in guinea pig atria; MI is Minimal Activity

| SMILES | Dose (Cavia porcellus [1]) | Dose (Cavia porcellus [2]) [µM] | Dose (Cavia porcellus [3]) [µM] | Dose (Cavia porcellus [4]) [µM] | Dose (Cavia porcellus [5]) [µM] | Dose (Cavia porcellus [6]) [µM] | Dose (Cavia porcellus [7]) |
| --- | --- | --- | --- | --- | --- | --- | --- |
| CC(=O)OC[C@H]1O[C@@H](OC2CC[C@@]3(C)C(CC[C@@H]4[C@@H]3CC[C@]3(C)[C@@H](C5=CC(=O)OC5)CC[C@@]43O)C2)[C@H](OC(C)=O)[C@@H]1OC(C)=O (stereo not given in full) | Minimal activity | 3 | 1.9 |  |  |  |  |
| C[C@]12CCC(O[C@@H]3O[C@H]4[C@H](NC[C@H]4O)[C@H]3O)CC1CC[C@@H]1[C@@H]2CC[C@]2(C)[C@@H](C3=CC(=O)OC3)CC[C@@]12O (stereo not given in full) |  | 0.86 | 0.5 | 1.5 | 2 |  |  |
| C[C@]12CC[C@H](O[C@@H]3O[C@H](CN=[N+]=[N-])[C@@H](O)[C@H]3O)C[C@@H]1CC[C@@H]1[C@@H]2CC[C@]2(C)[C@@H](C3=CC(=O)OC3)CC[C@@]12O |  | 0.43 | 0.25 |  |  | 1 |  |
| C[C@]12CC[C@H](O)C[C@H]1CC[C@@H]1[C@@H]2CC[C@]2(C)[C@@H](C3=CC(=O)OC3)CC[C@]12O [DIGITOXIGENIN] |  | 0.64 | 0.38 |  | 2.5 |  |  |
| CC(=O)O[C@H]1[C@H](OC2CC[C@@]3(C)C(CC[C@@H]4[C@@H]3CC[C@]3(C)[C@@H](C5=CC(=O)OC5)CC[C@@]43O)C2)O[C@H]2[C@@H]1OC[C@H]2OC(C)=O (stereo not given in full) |  | 0.53 | 0.39 |  |  | 1 |  |
| C[C@]12CC[C@H](O[C@@H]3O[C@H](CO)[C@@H](O)[C@H]3O)C[C@@H]1CC[C@@H]1[C@@H]2CC[C@]2(C)[C@@H](C3=CC(=O)OC3)CC[C@@]12O |  | 0.64 | 0.36 |  | 2.5 |  |  |
| C[C@H]1O[C@@H](O[C@H]2[C@@H](O)C[C@H](O[C@H]3[C@@H](O)C[C@H](O[C@H]4CC[C@@]5(C)[C@H](CC[C@@H]6[C@@H]5C[C@@H](O)[C@]5(C)[C@@H](C7=CC(=O)OC7)CC[C@]65O)C4)O[C@@H]3C)O[C@@H]2C)C[C@H](O)[C@@H]1O [DIGOXIN] |  | 0.82 | 0.42 |  | 2.5 |  |  |
| C[C@]12CCC(O[C@@H]3O[C@H]4[C@H](OC[C@H]4O)[C@H]3O)CC1CC[C@@H]1[C@@H]2CC[C@]2(C)[C@@H](C3=CC(=O)OC3)CC[C@@]12O (stereo not given in full) | Minimal activity |  | 10 |  |  |  | Minimal activity |
| CC(=O)O[C@H]1[C@H](OC2CC[C@@]3(C)C(CCC4[C@@H]3CC[C@]3(C)[C@@H](C5=CC(=O)OC5)CC[C@@]43O)C2)O[C@H](CN=[N+]=[N-])[C@H]1OC(C)=O (stereo not given in full) |  | 0.44 | 0.3 |  | 2.5 |  |  |
| CC(=O)O[C@H]1[C@H](OC2CC[C@@]3(C)C(CC[C@@H]4[C@@H]3CC[C@]3(C)[C@@H](C5=CC(=O)OC5)CC[C@@]43O)C2)O[C@H]2[C@@H]1N(C(=O)C(F)(F)F)C[C@H]2OC(C)=O (stereo not given in full) |  | 0.65 | 0.54 | 0.75 | 1 |  |  |
| C[C@]12CC[C@H](O[C@@H]3O[C@H](CN)[C@@H](O)[C@H]3O)C[C@@H]1CC[C@@H]1[C@@H]2CC[C@]2(C)[C@@H](C3=CC(=O)OC3)CC[C@@]12O |  | 0.35 | 0.26 |  |  | 5 |  |
